Reference: DBAASP
Converted amounts (≈) assume the structure as drawn. “And” between values parts separate entries of the source, which are not always exact repeats. Equal values may be shown once.

How the values were obtained:
Assay in all cases: ≥ marks a high value that may be exact or a test limit, other limits are often not marked, values filed in µg/mL are converted to µM
Staphylococcus capitis 1 = tested on: Staphylococcus capitis 1
[1] = tested on: Escherichia coli ATCC 25922
[2] = tested on: Candida albicans ATCC 10231
[3] = tested on: Pseudomonas aeruginosa ATCC 27853
Acinetobacter junii RT-4 = tested on: Acinetobacter junii RT-4
[4] = tested on: Pseudomonas aeruginosa ATCC 15692
[5] = tested on: Staphylococcus epidermidis ATCC 12228
[6] = tested on: Staphylococcus aureus Cowan 1
Escherichia coli D21 = tested on: Escherichia coli D21
[7] = tested on: Pseudomonas syringae pv. tabaci 1918NCPPB
Bacillus megaterium Bm11 = tested on: Bacillus megaterium Bm11
[8] = tested on: Yersinia pseudotuberculosis YPIII
[9] = tested on: Staphylococcus aureus ATCC 25923
Saccharomyces cerevisiae = tested on: Saccharomyces cerevisiae
[10] = tested on: Streptococcus pyogenes ATCC 21547
[11] = tested on: Schizosaccharomyces pombe
[12] = tested on: Acinetobacter baumannii ATCC 19606
[13] = tested on: Enterococcus faecalis ATCC 29212
[14] = tested on: Salmonella enterica subsp. enterica serovar Typhimurium ATCC 14028
[15] = tested on: Klebsiella pneumoniae ATCC 10031
[16] = tested on: Escherichia coli ATCC 11219
[17] = tested on: Staphylococcus aureus ATCC 6538
[18] = tested on: Pseudomonas aeruginosa ATCC 13388
[19] = tested on: Pseudomonas aeruginosa ATCC 47085
[20] = tested on: Staphylococcus aureus ATCC 29213
[21] = tested on: Klebsiella pneumoniae ATCC 700603
[22] = tested on: Staphylococcus aureus ATCC 700699
[23] = tested on: Staphylococcus aureus ATCC 33591
[24] = tested on: Pectobacterium carotovorum subsp. carotovorum DSM 30168
Cladosporium herbarum = tested on: Cladosporium herbarum
[25] = tested on: Xanthomonas vesicatoria DSM 50861
[26] = tested on: Pseudomonas syringae pv. tomato DC3000
Alternaria alternata = tested on: Alternaria alternata
[27] = tested on: Pseudomonas syringae pv. syringae DSM 10604
Botrytis cinerea = tested on: Botrytis cinerea
[28] = tested on: Clavibacter michiganensis subsp. michiganensis DSM 46294
[29] = tested on: Pseudomonas corrugata DSM 7228
[30] = tested on: Staphylococcus aureus 90857
[31] = tested on: Candida albicans ATCC 37092
[32] = tested on: Candida tropicalis ATCC 37097

Which results are given for `CC[C@H](C)[C@H](NC(=O)[C@H](CCCN=C(N)N)NC(=O)[C@@H]1CCCN1C(=O)[C@H](CC(C)C)NC(=O)[C@H](Cc1ccccc1)NC(=O)[C@H](CCCCN)NC(=O)[C@H](CO)NC(=O)[C@H](Cc1ccccc1)NC(=O)[C@H](Cc1c[nH]c2ccccc12)NC(=O)[C@@H]1CCCN1C(=O)[C@@H](NC(=O)[C@@H](N)Cc1ccccc1)C(C)C)C(=O)N[C@@H](CC(C)C)C(N)=O` [FVPWFSKFLPRIL]?
MIC (Staphylococcus capitis 1): 12 µM (≈ 19.8 µg/mL); MIC [1]: 48 µM (≈ 79.2 µg/mL); MIC [2]: 12 µM (≈ 19.8 µg/mL); MIC [3]: > 48 µM; MIC (Acinetobacter junii RT-4): 12 µM (≈ 19.8 µg/mL); MIC [4]: ≥ 48 µM; MIC [5]: 12 µM (≈ 19.8 µg/mL); MIC [6]: 24 µM (≈ 39.6 µg/mL); MIC (Escherichia coli D21): 24 µM (≈ 39.6 µg/mL); MIC [7]: 24 µM (≈ 39.6 µg/mL); MIC (Bacillus megaterium Bm11): 3 µM (≈ 4.95 µg/mL); MIC [8]: 24 µM (≈ 39.6 µg/mL); MIC [9]: 24 µM (≈ 39.6 µg/mL); MIC (Saccharomyces cerevisiae): 12 µM (≈ 19.8 µg/mL); MIC [10]: 12 µM (≈ 19.8 µg/mL); MIC [11]: 12 µM (≈ 19.8 µg/mL); MIC [12]: 48 µM (≈ 79.2 µg/mL); MIC [13]: 48 µM (≈ 79.2 µg/mL)

Which results are given for `CC[C@H](C)[C@H](NC(=O)CN)C(=O)N[C@@H](Cc1cnc[nH]1)C(=O)N[C@@H](CC(=O)O)C(=O)N[C@H](C(=O)N[C@@H](CC(C)C)C(=O)N[C@@H](CCCCN)C(=O)N[C@@H](Cc1ccc(O)cc1)C(=O)N[C@@H](C)C(=O)N[C@@H](CCCCN)C(=O)N1CCC[C@H]1C(=O)N[C@@H](CO)C(N)=O)[C@@H](C)CC` [GIHDILKYAKPS]?
MIC [14]: 10 µM (≈ 13.4 µg/mL); MIC [15]: 10 µM (≈ 13.4 µg/mL); MIC [16]: 5 µM (≈ 6.7 µg/mL); MIC [17]: 10 µM (≈ 13.4 µg/mL); MIC [18]: 15 µM (≈ 20.1 µg/mL)

What does the source list for `CC[C@H](C)[C@H](NC(=O)CN)C(=O)N[C@@H](CCCN=C(N)N)C(=O)N[C@@H](CC(=O)O)C(=O)N[C@H](C(=O)N[C@@H](CC(C)C)C(=O)N[C@@H](CCCCN)C(=O)N[C@@H](Cc1ccc(O)cc1)C(=O)NCC(=O)N[C@@H](CCCCN)C(=O)N1CCC[C@H]1C(=O)N[C@@H](CO)C(N)=O)[C@@H](C)CC` [GIRDILKYGKPS]?
MIC [14]: 5 µM (≈ 6.73 µg/mL); MIC [15]: 5 µM (≈ 6.73 µg/mL); MIC [16]: 5 µM (≈ 6.73 µg/mL); MIC [17]: 10 µM (≈ 13.5 µg/mL); MIC [18]: 20 µM (≈ 26.9 µg/mL)

Which MIC [19] does the source give for `CC[C@H](C)[C@H](NC(=O)[C@H](CCCN=C(N)N)NC(=O)[C@H](CC(C)C)NC(=O)[C@H](Cc1ccccc1)NC(=O)[C@H](CCC(=O)O)NC(=O)[C@H](CCCCN)NC(=O)[C@H](Cc1c[nH]c2ccccc12)NC(=O)[C@H](CCCCN)NC(=O)[C@H](Cc1c[nH]c2ccccc12)NC(=O)CNC(=O)[C@H](Cc1c[nH]c2ccccc12)NC(=O)[C@H](CCCCN)NC(=O)[C@H](Cc1c[nH]c2ccccc12)NC(=O)[C@H](CC(C)C)NC(=O)[C@H](CC(C)C)NC(=O)CN)C(=O)N[C@H](C(=O)NCC(=O)N[C@@H](Cc1ccc(O)cc1)C(N)=O)C(C)C` [GLLWKWGWKWKEFLRIVGY] here?
The MIC was no less than 415 µM.

And the MIC [9]?
Its MIC is greater than 415 µM.

What does the source list for `CC[C@H](C)[C@H](NC(=O)[C@H](CC(=O)O)NC(=O)[C@H](CCCCN)NC(=O)[C@H](C)NC(=O)[C@H](C)NC(=O)CNC(=O)[C@H](CCCCN)NC(=O)[C@H](C)NC(=O)[C@@H](NC(=O)[C@H](CC(=O)O)NC(=O)[C@@H](NC(=O)[C@@H](NC(=O)CN)C(C)C)C(C)C)[C@@H](C)CC)C(=O)N[C@@H](C)C(=O)NCC(=O)N[C@@H](Cc1cnc[nH]1)C(=O)N[C@@H](CC(C)C)C(=O)N[C@@H](C)C(=O)N[C@@H](CO)C(=O)N[C@@H](CCCCN)C(=O)N[C@H](C(=O)N[C@@H](CCSC)C(=O)N[C@@H](CC(N)=O)C(=O)N[C@@H](CCCCN)C(=O)N[C@@H](CC(C)C)C(N)=O)C(C)C` [GVVDIAKGAAKDIAGHLASKVMNKL]?
MIC [20]: > 100 µM; MIC [21]: > 100 µM; MIC [22]: ≥ 100 µM; MIC [1]: > 100 µM; MIC [3]: > 100 µM; MIC [23]: ≥ 100 µM

What does the source list for `CC(C)C[C@H](NC(=O)[C@H](C)NC(=O)[C@H](CCCN=C(N)N)NC(=O)[C@H](CCCCN)NC(=O)[C@H](CC(C)C)NC(=O)[C@H](C)NC(=O)[C@H](CCCN=C(N)N)NC(=O)[C@H](C)NC(=O)[C@H](C)NC(=O)[C@H](CCCCN)NC(=O)[C@H](CCCCN)NC(=O)[C@@H](N)CCCCN)C(N)=O` [KKKAARALKRAL]?
MIC [24]: 29.5 µM (≈ 40 µg/mL); MIC (Cladosporium herbarum): 29.5 µM (≈ 40 µg/mL); MIC [25]: 29.5 µM (≈ 40 µg/mL); MIC [26]: 7.39 µM (≈ 9.99 µg/mL); MIC (Alternaria alternata): ≥ 73.9 µM; MIC [27]: 29.5 µM (≈ 40 µg/mL); MIC (Botrytis cinerea): ≥ 73.9 µM; MIC [28]: 29.5 µM (≈ 40 µg/mL); MIC [29]: 29.5 µM (≈ 40 µg/mL)

For `CC[C@H](C)[C@H](NC(=O)[C@H](CC(C)C)NC(=O)[C@@H](N)CC(C)C)C(=O)N[C@@H](CCCN=C(N)N)C(=O)N[C@@H](C)C(=O)N[C@@H](C)C(=O)N[C@@H](CCCCN)C(=O)N[C@@H](CCCCN)C(=O)N[C@@H](Cc1ccccc1)C(=O)N[C@H](C(=O)N[C@@H](CCCCN)C(=O)N[C@@H](CCCCN)C(N)=O)[C@@H](C)CC` [LLIRAAKKFIKK], which MIC [24] is on record?
The MIC was 28 µM (≈ 40 µg/mL).

What about the MIC (Cladosporium herbarum) of the same molecule?
Its MIC is 28 µM (≈ 40 µg/mL).

What about the MIC [25] of the same molecule?
The MIC was 28 µM (≈ 40 µg/mL).

And the MIC [26]?
The MIC was 28 µM (≈ 40 µg/mL).

And the MIC [30]?
Its MIC is no less than 62.5 µM.

What about the MIC (Alternaria alternata) of the same molecule?
The MIC was no less than 70 µM.

And the MIC [27]?
Its MIC is 28 µM (≈ 40 µg/mL).

And the MIC (Botrytis cinerea)?
The MIC was no less than 70 µM.

What about the MIC [28] of the same molecule?
The MIC was 28 µM (≈ 40 µg/mL).

And the MIC [29]?
Its MIC is 28 µM (≈ 40 µg/mL).

`CC(C)C[C@H](NC(=O)[C@H](C)NC(=O)[C@H](CCCCN)NC(=O)[C@H](CCCCN)NC(=O)[C@H](CC(C)C)NC(=O)[C@H](Cc1ccccc1)NC(=O)[C@H](CCCN=C(N)N)NC(=O)[C@@H](N)CC(C)C)C(=O)N[C@@H](CCCCN)C(=O)N[C@@H](CCCCN)C(=O)N[C@@H](CC(C)C)C(=O)N[C@@H](Cc1ccccc1)C(N)=O` [LRFLKKALKKLF] was tested. Which MIC [24] did it give?
Its MIC is 0.664 µM (≈ 0.999 µg/mL).

What about the MIC [25] of the same molecule?
Its MIC is 0.166 µM (≈ 0.25 µg/mL).

And the MIC [26]?
Its MIC is 0.332 µM (≈ 0.5 µg/mL).

What about the MIC [30] of the same molecule?
Its MIC is 0.625 µM (≈ 0.94 µg/mL).

And the MIC [27]?
The MIC was 0.0664 µM (≈ 0.0999 µg/mL).

What about the MIC [28] of the same molecule?
Its MIC is 0.166 µM (≈ 0.25 µg/mL).

And the MIC [29]?
The MIC was 0.332 µM (≈ 0.5 µg/mL).

For `CC(C)C[C@H](NC(=O)[C@@H](N)CCCN=C(N)N)C(=O)N[C@@H](Cc1ccc(O)cc1)C(=O)N[C@@H](CCCN=C(N)N)C(N)=O` [RLYR], which MIC [20] is on record?
Its MIC is 4.5 µM and 10.2 µM.

And the MIC [1]?
Its MIC is 6.1 µM and 10.2 µM.

And the MIC [31]?
The MIC was 10 µM and 6.4 µM.

What about the MIC [13] of the same molecule?
Its MIC is 4.7 µM and 10.2 µM.

And the MIC [32]?
The MIC was 1.3 µM and 1.8 µM.
